According to publication PMC6934184, “Selective DNA-PKcs inhibition extends the therapeutic index of localized radiotherapy and chemotherapy” (The Journal of Clinical Investigation, 2019):

Target: T1, ACVR2B (Homo sapiens, UniProt Q13705)
T1 construct: purchased Thermo Fisher Scientific (Life Technologies) SelectScreen
Experiment: SelectScreen LanthaScreen
Type: binding
Conditions: 1 µM
In short: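 SelectScreen broad panel; activity (Z'LYTE, Adapta) plus binding formats. ATP: Km app for CSF1R Z'LYTE; 10 for CAMK1 Adapta. Readout = % per kinase.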

T1 sequence (Q13705 19-512): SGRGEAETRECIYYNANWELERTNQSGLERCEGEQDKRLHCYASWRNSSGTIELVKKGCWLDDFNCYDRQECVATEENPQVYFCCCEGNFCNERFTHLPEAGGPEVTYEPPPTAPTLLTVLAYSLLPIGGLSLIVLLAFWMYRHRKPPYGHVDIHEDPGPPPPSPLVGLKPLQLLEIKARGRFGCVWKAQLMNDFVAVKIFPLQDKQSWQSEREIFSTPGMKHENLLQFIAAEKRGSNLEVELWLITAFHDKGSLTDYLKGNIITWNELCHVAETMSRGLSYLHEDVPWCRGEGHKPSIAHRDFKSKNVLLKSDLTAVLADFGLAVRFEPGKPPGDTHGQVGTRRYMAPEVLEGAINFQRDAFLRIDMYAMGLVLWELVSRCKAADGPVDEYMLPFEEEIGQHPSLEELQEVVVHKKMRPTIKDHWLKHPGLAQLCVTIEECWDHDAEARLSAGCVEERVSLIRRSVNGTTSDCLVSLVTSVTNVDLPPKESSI

CN(C(=O)CN1CCOCC1)c1ccc2sc3c(-c4cccc5c(=O)cc(N6CC7CCC(C6)O7)oc45)cccc3c2c1 [NU5455]
% displacement: 15.7%
